Laboratory results reported in patent US12589085B2, “Use of diaminoguanidine derivative and feed composition thereof in preparation of veterinary drug” (priority 2019, dated 2026).
Where two headings read alike, the source gives them in different places.

Key:
[1] = tested on: sows suffering from endometritis; test: Efficacy on endometritis in postpartum sows; type: in vivo, pig; details: uterine perfusion 10 mg/kg once a day for 7 days; 30 sows
Procedure: Sows suffering from endometritis in 5 different pig farms were selected, 30 cases in each farm, 150 cases in total, were randomly divided into groups, and a non-treatment control was set up, and the sick pigs in each experimental group were perfused into the uterus. Agents, the main components of the uterine perfusion for treatment groups 1-4 were Compound 1, Compound 2, Compound 3, and Compound 4, respectively, at a dose of 10 mg/kg, and the control group was given an equal volume of normal saline. The frequency of administration is once a day for 7 consecutive days.

TA97 = test: Salmonella typhimurium reverse mutation assay, plate incorporation, TA97; details: positive control, TA97 −S9, 50 μg/100 μL dish
Procedure: (§1) Test strains: A set of standard test strains of TA97, TA98, TA100 and TA102 were provided by the Jiangsu Provincial Center for Disease Control and Prevention, and stored at −80° C. The test bacteria were cultured in a 37° C. water bath with shaking for 24 hours and stored at 4° C.
(§2) Enrichment culture: The main plate or the frozen-preserved strain culture was inoculated into nutrient broth, and cultivated for 10 hours at 37° C. with shaking (100 times/min). The strain culture should be more than 1˜2×10^9 viable bacteria per milliliter.
(§3) According to the physicochemical properties of the test article, the Compound 2 was prepared before test: 0.1 g of Compound 2 white powder was under UV sterilization for 2 h before test, and dissolved in 10 mL of dimethyl sulfoxide (DMSO), and then diluted to the desired concentration for the use (fresh preparation). […]
(§4) Preparation of test agent solution: 0.1 mL of test agent solution was added to each dish, and the highest concentration and volume of test agent solution to be prepared were determined according to the set maximum test dose of 10 mg/mL. The amount of the test agent to be weighed was calculated when the solution was prepared. […]
(§5) Judgment and evaluation of results: The results of each test were sorted out, and the number of strains turned into colonies was expressed as (x±SD)/dish. […]

TA98 = test: Salmonella typhimurium reverse mutation assay, plate incorporation, TA98; details: positive control, TA98 −S9, 50 μg/100 μL dish
Procedure: as §1, §2, §3, §4, §5

TA102 = test: Salmonella typhimurium reverse mutation assay, plate incorporation, TA102; details: positive control, TA102 −S9, 1.0 μL/100 μL dish
Procedure: as §1, §2, §3, §4, §5

sperm = details: oral once a day 5 days; for Total number of abnormal sperm / abnormal sperm: Amorphous / abnormal sperm: Banana shape / abnormal sperm: Double head / abnormal sperm: Double tail / abnormal sperm: Fat head / abnormal sperm: Fold tail / abnormal sperm: No hook: Day 35, 10000 sperm; for Number of Abnormal sperm (x ± SD) / Sperm deformity: Day 35, n = 10
Procedure: Experimental animals: 60 clean-grade healthy male ICR mice having the average weight of 18-20 g, purchased from the Comparative Medicine Center of Yangzhou University.
Reagents: Test agent, Compound 2, provided by Guangzhou Insighter Biotechnology Co., Ltd., was prepared into a suspension of the required concentration with 1.0% sodium carboxymethyl cellulose before use; the mutagenic positive control article of cyclophosphamide with the content of 99.00%; other reagents include sodium chloride, methanol, and eosin, all of analytical grade; self-prepared physiological saline; self-prepared eosin aqueous solution (2%).
The test article, Compound 2 was diluted with 1.0% sodium carboxymethyl cellulose as a solvent, and it was given by oral in different concentrations and the same volume. There is also a positive control and a negative (solvent) control. The cyclophosphamide was selected as the positive control (40 mg/kg).
Grouping of experimental animals: 60 healthy male mice were individually weighed, labeled and numbered, and they were divided into 5 groups with 12 mice in each group using a completely random method. It was ensured that 10 animals in each group survive for sampling and film making after administration.
Administration: The administration method is carried out according to GB15193.7-2003. The test group, the negative control and the positive control are all given the test article by oral once a day for 5 consecutive days. The weight of the mouse for each administration was weighed, and the volume of the test article that each mouse should administer was calculated according to the requirements of the mouse 0.2 mL/10 g b.w.
Sampling and sample preparation: The mice were sacrificed by cervical dislocation on the Day 35 after the first administration, and sampling and film making were performed. 10 mice were sampled in each dose group. The abdominal cavity was cut, the epididymis on both sides were separated and extracted, and put in a petri dish containing 2 mL of normal saline; The mice were longitudinally cut with ophthalmological scissors for 2 times, the normal saline in it was pipetted with a straw for several times, and let stand for 3 min; the tissue fragments were filtered with a 4-layer of lens cleaning paper, 1 drop of the filtrate was drawn onto the glass slide, the slide was pushed with 4 slides per mouse; the slide in the air dried naturally, and fixed with methanol for 10 minutes, and dried; stained with 2% eosin for 1 h, the dye solution was gently washed off with water, and it was dried naturally before microscopic examination.
Data collation and analysis: The number of normal sperm, the number of abnormal sperm and the number of various types of abnormal sperm were read and counted in each dose group of mice. The sperm abnormality rate (%) of mice in each dose group and the percentage (%) of various types of abnormal sperm were calculated, and the standard deviation of the sperm abnormality rate of mice was also calculated in each dose group. Calculation as follows:
The sperm abnormality rate of mice in each dose group was statistically compared with the sperm abnormality rate of mice in the negative (solvent) control. The experimental data was processed by SPSS 11.0 statistical software, and the analysis results were expressed as x±SD, and the incidence of sperm abnormalities was statistically processed according to the X^2 (α=0.05).
If the dose of the test group has caused the animal to die, while the sperm abnormality has not increased, the result can be judged to be negative.

## COC(=O)c1ccc(/C=N/NC(=N)N/N=C/c2ccc(C(=O)OC)cc2)cc1 [Compound 4]
[1]
  Cure rate: 100%
  Treatment effects: sows cured: 25 sows were cured,
  Treatment effects: sows improved in symptoms: 5 sows improved

## CN(C)c1ccc(N=NS(=O)(=O)[O-])cc1.[Na+] [Dixon, reference compound]
TA97; First
  reverting colonies per dish (x ± SD): >2000
TA97; Second
  reverting colonies per dish (x ± SD): >2000
TA98; First
  reverting colonies per dish (x ± SD): 932.00 ± 57.17
TA98; Second
  reverting colonies per dish (x ± SD): >2000

## COS(C)(=O)=O [Methyl Methanesulfonate, methyl methanesulfonate, reference compound]
TA102; First
  reverting colonies per dish (x ± SD): 392.67 ± 12.86
TA102; Second
  reverting colonies per dish (x ± SD): >2000

## isopropoxyphenylguanidine [Compound 2]
sperm; high 500 mg/kg
  Total number of abnormal sperm: 224
  abnormal sperm: Amorphous: 106
  abnormal sperm: Banana shape: 22
  abnormal sperm: Double head: 5
  abnormal sperm: Double tail: 9
  abnormal sperm: Fat head: 10
  abnormal sperm: Fold tail: 9
  abnormal sperm: No hook: 63
  Number of Abnormal sperm (x ± SD): 22.40 ± 1.84
  Sperm deformity: 2.17 ± 0.16%
sperm; low 125 mg/kg
  Total number of abnormal sperm: 223
  abnormal sperm: Amorphous: 118
  abnormal sperm: Banana shape: 16
  abnormal sperm: Double head: 4
  abnormal sperm: Double tail: 6
  abnormal sperm: Fat head: 5
  abnormal sperm: Fold tail: 5
  abnormal sperm: No hook: 69
  Number of Abnormal sperm (x ± SD): 22.30 ± 1.70
  Sperm deformity: 2.15 ± 0.16%
sperm; medium 250 mg/kg
  Total number of abnormal sperm: 221
  abnormal sperm: Amorphous: 111
  abnormal sperm: Banana shape: 21
  abnormal sperm: Double head: 5
  abnormal sperm: Double tail: 7
  abnormal sperm: Fat head: 7
  abnormal sperm: Fold tail: 5
  abnormal sperm: No hook: 65
  Number of Abnormal sperm (x ± SD): 22.10 ± 1.37
  Sperm deformity: 2.14 ± 0.14%

## N=C(N/N=C/c1ccc(OCc2ccccc2)cc1)N/N=C/c1ccc(OCc2ccccc2)cc1 [Compound 3]
[1]
  Cure rate: 90.0%
  Treatment effects: sows cured: 25 sows were cured,
  Treatment effects: sows improved in symptoms: 2 sows improved

## N=C(N/N=C/c1ccc([N+](=O)[O-])cc1)N/N=C/c1ccc([N+](=O)[O-])cc1 [Compound 1]
[1]
  Cure rate: 93.3%
  Treatment effects: sows cured: 27 sows were cured,
  Treatment effects: sows improved in symptoms: 1 sow improved sows
